The source of these data is patent US9937250B2, “Immunogenic tumor associated stromal cell antigen peptides and methods of their use” (University of Pittsburgh—Of the Commonwealth System of …, priority 2011, dated 2018).

Assay [1] concerns CD8+ T cells from HLA-A2+ normal donors or HLA-A2+ melanoma patients. Description: In vitro sensitization of human CD8+ T cells with TASA peptide-pulsed autologous DC, IFN-γ ELISA against peptide-pulsed T2 cells. Format: cell-based. Conditions: response = IFN-γ >30 pg/ml and >2 fold HIV-nef control; for Specific CD8+ T Cell Response, HLA-A2+ Normal Donors (of 8): number of responding donors of 8; for Specific CD8+ T Cell Response, HLA-A2+ Melanoma Patients (of 10): number of responding patients of 10. On the procedure: The indicated peptides were pulsed onto autologous DC and used to prime and boost CD8^+ T cells isolated from the peripheral blood of eight normal HLA-A2^+ donors or ten HLA-A2^+ patients with melanoma. Seven days after the primary in vitro sensitization (IVS) (melanoma patients) or a secondary IVS boost (normal donors), T cells were analyzed for their reactivity against HLA-A2^+ T2 cells pulsed with the relevant peptide vs. the negative control HIV-nef190-198 peptide. After 24 hours of co-culture, cell-free supernatants were analyzed for levels of secreted IFN-γ using a commercial ELISA. Data are reported in Bar and Whisker plots, with p-values provided for paired pre- versus post-IVS data from normal donors and patients. In addition, p<0.05 was detected for MEL-Post versus ND-Post for the following peptides: DLK1 (309), NG2 (770), NG2 (2238), PDGFRβ (891) and RGS5 (5).
In vitro assessment of human CD8^+ T cell responses against TASA- or TAA-derived peptides. Peripheral blood mononuclear cells (PBMC) were obtained by venipuncture or leukapheresis from HLA-A2^+ normal donors or HLA-A2^+ melanoma patients with written consent under IRB-approved protocols (Table 3). CD8^+ T cells were then isolated by MACS (Miltenyi Biotec, Auburn, Calif.) and either not stimulated or stimulated with autologous, TASA peptide-pulsed DC as previously described (Tatsumi et al., Cancer Res., 63:4481-4489, 2003). Normal donor T cells were stimulated with TASA peptide-pulsed DC twice on a weekly schedule, with responder T cells harvested for analysis of their specificity 5 days after the booster stimulation (i.e. day 12 of T cell-DC co-culture). Melanoma patient CD8^+ T cells were analyzed after a single round of stimulation with TASA peptide-pulsed, autologous DC (i.e. day 5 of T cell-DC co-culture) as indicated. For DC-based stimulations, DC were pulsed with an equimolar (1 μM each) pool of the TASA peptides (Table 4) for 4 h at 37° C. at 5% CO2 tension. These antigen-loaded DC were then used to stimulate autologous CD8^+ T cells at a T cell-to-DC ratio of 10:1 to generate a bulk population of responder T cells. T cells were maintained in IMDM media supplemented with 10% human AB serum, 100 U/ml penicillin, […], 10 mM L-glutamine and MEM non-essential amino acids (all reagents from Invitrogen, except human AB serum that was purchased from Sigma-Aldrich, St. Louis, Mo.). Responder CD8^+ T cells were analyzed for reactivity against control (HLA-A2^+) T2 cells or T2 cells pulsed with individual TASA or TAA peptides (1 μM for 4 h at 37° C.) at a CD8^+ T cell-to-T2 cell ratio of 5:1 for 24 h. Harvested cell-free supernatants were consequently assessed for hIFN-γ content using a specific ELISA (BD Biosciences, San Diego, Calif.) with a lower detection limit of 4.7 pg/ml.
CD8^+ T cells from HLA-A2^+ normal donors or HLA-A2^+ melanoma patients recognize TASA-derived peptides in vitro. To assess whether the TASA-derived peptides identified in the HHD tumor model were also capable of being recognized by human CD8^+ T cells, IVS was performed using T cells isolated from the peripheral blood of HLA-A2^+ donors or HLA-A2^+ patients with melanoma. DC were pulsed with peptides derived from a given TASA for 4 h at 37° C., then washed and used as stimulator cells for autologous CD8^+ T cells. In cases where more than one peptide existed for a given protein, DC were pulsed with an equimolar (10 μM) mixture of each peptide. Two rounds of IVS using TASA for normal donors and a single-round of IVS using TASA for melanoma patients was applied. HLA-A2^+ normal donors (FIG. 4; Tables 4, 5A and 5B) and melanoma patients (FIG. 4; Tables 4, 5A and 5B) were each capable of recognizing many of the TASA-derived peptides.

The subject of assay [2] is CD8+ splenocytes. The assay is described as follows: Tc1 response to DC.IL12/peptide vaccination (splenic CD8+ T cell IFN-γ ELISA against peptide-pulsed T2 cells). Format: in vivo, HHD mice. The settings on record: DC.IL12 pulsed with peptide(s), two s.c. vaccinations; versus DC only. An excerpt:
FIGS. 9A-9B show a series of graphs illustrating induction of specific/protective CD8^+ T cells reactive against TASA as a consequence of DC/peptide-based vaccination. In FIG. 9A, HHD mice (five animals/cohort) were vaccinated twice (d-14, d-7) subcutaneously with PBS or with isologous DC.IL12 pulsed with PBS or synthetic peptides (Table 6) derived from the indicated TASA. In cases where more than 1 peptide was identified for a given target antigen, an equimolar pool of the indicated peptides (each 10 μM) was pulsed onto DC.IL12 and used for vaccination in the relevant cohort. One week after the second immunization, spleens were harvested and splenic CD8^+ T cells isolated using MACS-beads (Miltenyi). T cells were stimulated in vitro for 48 h using the HLA-A2^+ T2 cell line pulsed with relevant TASA vs. irrelevant HIV-nef190-198 ([…]; ref. 24) peptides. Cell-free supernatants were then recovered and IFN-γ levels by ELISA. Data are reported as mean+/−SD for triplicate ELISA determinations, and are representative of 3 independent experiments performed. *p<0.05 vs. HIV-nef control peptide responses. In FIG. 9B, HHD mice were vaccinated twice (days −14 and −7; right flank) subcutaneously with PBS or with isologous DC.IL12 pulsed with PBS or synthetic TASA peptides as indicated in FIG. 1A. In cases where more than 1 peptide is identified for a given target antigen, an equimolar pool of the indicated peptides (each 10 μM) was pulsed onto DC.IL12 and used for vaccination in the relevant cohort. One week after the booster vaccine (i.e. day zero), animals were challenged subcutaneously on their left flank with 2×10^6 MC38 colon carcinoma cells. Tumor growth was then monitored every 3-4 days through day 24. All data represent mean tumor area (in mm^2)+/−SD determined from 5 mice/cohort, and are representative of three independent experiments performed. *p<0.05 versus DC only on the indicated days.
Vaccine Experiments. For prophylactic experiments, HHD mice were immunized subcutaneously on the right flank with 100 μl PBS or PBS containing 10^6 syngenic DC.IL12 cells that had been untreated or pre-pulsed for 4 h at 37° C. with 10 μM synthetic peptide(s). Immunizations occurred on days −14 and −7, with mice subsequently receiving injections of MC38 (2×10^6) tumor cells in the left flank on d0. In all cases, treatment groups contained 5 mice per cohort. For analysis of tumor cellular composition in repeat experiments, MC38 tumors were isolated by surgical resection 10 days after tumor inoculation and prepared for fluorescence imaging, as described below. […] Mice were then untreated or treated with control, syngenic DC.IL12 or DC.IL12 (10^6 cells injected subcutaneously in the left flank on days 7 and 14) pulsed with synthetic TBVA peptides. In some assays, as indicated, in vivo antibody depletions (on days 6, 13 and 20 post-tumor inoculation to assess early involvement or on days 60 and 67 or 180 and 187 to assess late involvement) of protective CD4^+ T cells or CD8^+ T cells were performed and monitored as previously described (Zhao et al., Mol Ther., 19:805-814, 2011). In all cases, tumor size (area) was monitored every 3-4 days and is reported as mean+/−SD in mm^2.
Evaluation of Specific CD8^+ T Cell Responses in HHD Mice. MACS (Miltenyi Biotec) CD8^+ splenocytes were harvested (from 3 mice/group) 7 days after the second round of DC-based vaccination (i.e. day 21 after tumor inoculation) and analyzed for reactivity against unpulsed T2 cells, TBVA peptide-pulsed T2 cells, or day 19 (flow-sorted) B16-derived PDGFRβ^+CD31^negH-2K^b(neg) pericytes or PDGFRβ^negCD31^+H-2K^b(neg) VEC isolated as previously described (Zhao et al., Mol Ther., 19:805-814, 2011). Where indicated, 10 μg of anti-HLA-A2 mAb BB7.2 or control anti-class II mAb L243 (both from ATCC, Manassas, Va.) were added to replicate co-culture wells. After 48 h, supernatants were analyzed for mIFN-γ content by specific ELISA (BD-Biosciences; lower detection limit=31.3 pg/ml). […]
A general note: In an ELISA, binding on a coated surface is turned into a signal by an enzyme label.

With DIWDGIPHV (listed as Homo sapiens), in assay [1], the “Specific CD8+ T Cell Response, HLA-A2+ Normal Donors (of 8)” value (“Specific CD8+ T Cell Response … (of 8)” below) came to 0 and the “Specific CD8+ T Cell Response, HLA-A2+ Melanoma Patients (of 10)” value (“Specific CD8+ T Cell Response … (of 10)” below) is recorded as 4. In assay [2], the “Tc1 Response to Peptide Vaccine (HHD)” value was “+ (+, p < 0.05 versus DC only)”.
Consider FLNKCETWV (listed as Homo sapiens), for which, in assay [1], the “Specific CD8+ T Cell Response … (of 8)” value is reported as 2 and the “Specific CD8+ T Cell Response … (of 10)” value worked out at 4. In assay [2], the “Tc1 Response to Peptide Vaccine (HHD)” value is “+ (+, p < 0.05 versus DC only)”.
Turning to GLLRFVTAV (listed as Homo sapiens), in assay [1], the “Specific CD8+ T Cell Response … (of 8)” value turned out to be 2 and the “Specific CD8+ T Cell Response … (of 10)” value amounted to 7. In assay [2], the “Tc1 Response to Peptide Vaccine (HHD)” value is listed as “+ (+, p < 0.05 versus DC only)”.
With GMLGMVSGL (listed as Homo sapiens), in assay [1], the “Specific CD8+ T Cell Response … (of 8)” value worked out at 2 and the “Specific CD8+ T Cell Response … (of 10)” value is 7. Moreover, the “Tc1 Response to Peptide Vaccine (HHD)” value in assay [2] is reported as “+ (+, p < 0.05 versus DC only)”.
As for ILGVLTSLV (listed as Homo sapiens), in assay [1], the “Specific CD8+ T Cell Response … (of 8)” value is recorded as 2 and the “Specific CD8+ T Cell Response … (of 10)” value came to 6. The “Tc1 Response to Peptide Vaccine (HHD)” value in assay [2] was “+ (+, p < 0.05 versus DC only)”.
With ILLWEIFTL (listed as Homo sapiens), in assay [1], the “Specific CD8+ T Cell Response … (of 8)” value is 2 and the “Specific CD8+ T Cell Response … (of 10)” value is reported as 1. Also, in assay [2], the “Tc1 Response to Peptide Vaccine (HHD)” value is given as “+ (+, p < 0.05 versus DC only)”.
As for LILPLLFYL (listed as Homo sapiens), in assay [1], the “Specific CD8+ T Cell Response … (of 8)” value is 0 and the “Specific CD8+ T Cell Response … (of 10)” value amounted to 4. Besides, the “Tc1 Response to Peptide Vaccine (HHD)” value in assay [2] is reported as “+ (+, p < 0.05 versus DC only)”.
As to LLQERGVAYI (listed as Homo sapiens), in assay [1], the “Specific CD8+ T Cell Response … (of 8)” value is listed as 0 and the “Specific CD8+ T Cell Response … (of 10)” value was found to be 2. Moreover, the “Tc1 Response to Peptide Vaccine (HHD)” value in assay [2] was “+ (+, p < 0.05 versus DC only)”.
On to LLVPTCVFLV (listed as Homo sapiens), for which, in assay [1], the “Specific CD8+ T Cell Response … (of 8)” value was found to be 4 and the “Specific CD8+ T Cell Response … (of 10)” value worked out at 4. Besides, the “Tc1 Response to Peptide Vaccine (HHD)” value in assay [2] is reported as “+ (+, p < 0.05 versus DC only)”.
Take NMLGMLSGL (listed as Homo sapiens): in assay [1], the “Specific CD8+ T Cell Response … (of 8)” value is on record as 0 and the “Specific CD8+ T Cell Response … (of 10)” value was 0.
As for RLLGNVLVCV (listed as Homo sapiens), in assay [1], the “Specific CD8+ T Cell Response … (of 8)” value came to 1 and the “Specific CD8+ T Cell Response … (of 10)” value was 1. Moreover, the “Tc1 Response to Peptide Vaccine (HHD)” value in assay [2] is listed as “+ (+, p < 0.05 versus DC only)”.
Consider RLLVVYPWT (listed as Homo sapiens), for which, in assay [1], the “Specific CD8+ T Cell Response … (of 8)” value was 2 and the “Specific CD8+ T Cell Response … (of 10)” value worked out at 6. Also, the “Tc1 Response to Peptide Vaccine (HHD)” value in assay [2] is given as “+ (+, p < 0.05 versus DC only)”.
Consider RLTPGVHEL (listed as Homo sapiens), for which, in assay [1], the “Specific CD8+ T Cell Response … (of 8)” value is 1 and the “Specific CD8+ T Cell Response … (of 10)” value is on record as 4. In assay [2], the “Tc1 Response to Peptide Vaccine (HHD)” value is reported as “+ (+, p < 0.05 versus DC only)”.
Regarding TLADFDPRV (listed as Homo sapiens), in assay [1], the “Specific CD8+ T Cell Response … (of 8)” value is recorded as 2 and the “Specific CD8+ T Cell Response … (of 10)” value turned out to be 6. The “Tc1 Response to Peptide Vaccine (HHD)” value in assay [2] is given as “+ (+, p < 0.05 versus DC only)”.
As for TLFWLLLTL (listed as Homo sapiens), in assay [1], the “Specific CD8+ T Cell Response … (of 8)” value was determined as 1 and the “Specific CD8+ T Cell Response … (of 10)” value is on record as 3. In addition, the “Tc1 Response to Peptide Vaccine (HHD)” value in assay [2] was “+ (+, p < 0.05 versus DC only)”.
Take TLSNLSFPV (listed as Homo sapiens): in assay [1], the “Specific CD8+ T Cell Response … (of 8)” value amounted to 0 and the “Specific CD8+ T Cell Response … (of 10)” value stood at 4.
On to VIAMFFWLL (listed as Homo sapiens), for which, in assay [1], the “Specific CD8+ T Cell Response … (of 8)” value was 0 and the “Specific CD8+ T Cell Response … (of 10)” value came out at 0. Also, in assay [2], the “Tc1 Response to Peptide Vaccine (HHD)” value was “+ (+, p < 0.05 versus DC only)”.
Turning to VLLGAVCGV (listed as Homo sapiens), in assay [1], the “Specific CD8+ T Cell Response … (of 8)” value is on record as 2 and the “Specific CD8+ T Cell Response … (of 10)” value was 1. In addition, the “Tc1 Response to Peptide Vaccine (HHD)” value in assay [2] was “+ (+, p < 0.05 versus DC only)”.
Consider YLQVDLRFL (listed as Homo sapiens), for which, in assay [1], the “Specific CD8+ T Cell Response … (of 8)” value is 0 and the “Specific CD8+ T Cell Response … (of 10)” value is listed as 4.
